Measured values taken from patent publication US20240101573A1, “MACROCYCLIC K-RAS G12C INHIBITOR, PREPARATION METHOD THEREFOR AND USE THEREOF” (Abbisko Therapeutics Co., Ltd., priority 2020, published 2024).
pIC50: −log10 of the molar value.

Tests used:
H358 = experiment: Anti-proliferation 2D CTG test (H358); type: cell-based; details: H358 cells, 1500 cells/well, 5 days incubation with compound, CTG readout
How it was run: (§1)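 H358 (1500 cells/well) and MIA PaCa-2 (500 cells/well) seeded overnight, then treated 5 days at 37 °C with 10-point 1:3 dilutions, top final […], 0.5% DMSO. Viability by CellTiter-Glo luminescence; IC50 from four-parameter fit normalized to plate controls.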

MIA PaCa-2 = experiment: Anti-proliferation 2D CTG test (MIA PaCa-2); type: cell-based; details: MIAPACA-2 cells, 500 cells/well, 5 days incubation with compound, CTG readout
How it was run: as §1

[1] = Homo sapiens, MIA PaCa-2, 120 h

| SMILES | pIC50 (H358) | pIC50 (MIA PaCa-2) | pIC50 (H358; Homo sapiens, NCI-H358, 120 h) | pIC50 (MIA PaCa-2; [1]) |
| --- | --- | --- | --- | --- |
| C=CC(=O)N1CCN(c2nc(=O)n3c4nc(c(F)cc24)-c2c(F)cccc2OCC(OC(=O)C(C)C)C(OC(=O)C(C)C)c2ccnc(C(C)C)c2-3)[C@@H](C)C1 (stereo partly drawn) [Example 13, 2^4-((S)-4-acryloyl-2-methylpiperazin-1-yl)-2^6,3^6-difluoro-1^2-isopropyl-2^2-oxo-2^1,2^2-dihydro-4-oxa-2(1,7)-pyrido[2,3-d]pyrimidina-1(3,4)-pyridina-3(1,2)-benzocycloheptane-6,7-diyl di(2-methylpropionate)] |  |  | 8.30 | 8.30 |
| C=CC(=O)N1CCN(c2nc(=O)n3c4nc(c(F)cc24)-c2c(F)cccc2OCC(OC(=O)OC(C)(C)C)C(OC(=O)OC(C)(C)C)c2ccnc(C(C)C)c2-3)[C@@H](C)C1 (stereo partly drawn) [Example 15, 2^4-((S)-4-acryloyl-2-methylpiperazin-1-yl)-2^6,3^6-difluoro-1^2-isopropyl-2^2-oxo-2^1,2^2-dihydro-4-oxa-2(1,7)-pyrido[2,3-d]pyrimidina-1(3,4)-pyridina-3(1,2)-benzocycloheptane-6,7-diyl di-tert-butyldi(carbonate)] |  |  | 7.92 | 8.00 |
| C=CC(=O)N1CCN(c2nc(=O)n3c4nc(c(F)cc24)-c2c(F)cccc2OCC(OCC)C(=O)c2ccnc(C(C)C)c2-3)[C@@H](C)C1 (stereo partly drawn) [Example 21, (R)-2^4-((S)-4-acryloyl-2-methylpiperazin-1-yl)-6-ethoxy-2^6,3^6-difluoro-1^2-isopropyl-2^1,2^2-dihydro-4-oxa-2(1,7)-pyrido[2,3-d]pyrimidina-1(3,4)-pyridina-3(1,2)-benzocycloheptane-22,7-dione] |  |  | 7.22 | 6.82 |
| C=CC(=O)N1CCN(c2nc(=O)n3c4nc(c(F)cc24)-c2c(F)cccc2OCC(OC(=O)CC)C(OC(=O)CC)c2ccnc(C(C)C)c2-3)[C@@H](C)C1 (stereo partly drawn) [Example 12, 2^4-((S)-4-acryloyl-2-methylpiperazin-1-yl)-2^6,3^6-difluoro-1^2-isopropyl-2^2-oxo-2^1,2^2-dihydro-4-oxa-2(1,7)-pyrido[2,3-d]pyrimidina-1(3,4)-pyridina-3(1,2)-benzocycloheptane-6,7-diyl dipropionate] |  |  | 7.59 | 7.59 |
| C=CC(=O)N1CCN(c2nc(=O)n3c4nc(c(F)cc24)-c2c(F)cccc2OCC(OC(=O)C2CC2)C(OC(=O)C2CC2)c2ccnc(C(C)C)c2-3)[C@@H](C)C1 (stereo partly drawn) [Example 14, 2^4-((S)-4-acryloyl-2-methylpiperazin-1-yl)-2^6,3^6-difluoro-1^2-isopropyl-2^2-oxo-2^1,2^2-dihydro-4-oxa-2(1,7)-pyrido[2,3-d]pyrimidina-1(3,4)-pyridina-3(1,2)-benzocycloheptane-6,7-diyl dicyclopropanecarboxylate] |  |  | 8.22 | 8.05 |
| C=CC(=O)N1C[C@H](C)N(c2nc(=O)n3c4nc(c(F)cc24)-c2c(F)cccc2OCC(O)C(O)c2ccnc(C(C)C)c2-3)C[C@H]1C (stereo partly drawn) [Example 3, (S)-2^4-((2S,5R)-4-acryloyl-2,5-dimethylpiperazin-1-yl)-2^6,3^6-difluoro-6,7-dihydroxy-1^2-isopropyl-2^1,2^2-dihydro-4-oxa-2(1,7)-pyrido[2,3-d]pyrimidina-1(3,4)-pyridina-3(1,2)-benzocycloheptane-2^2-one] | 5.90 | 6.40 |  |  |
| C=CC(=O)N1CCN(c2nc(=O)n3c4nc(c(F)cc24)-c2c(F)cccc2OCC(=O)C(OC(C)=O)c2ccnc(C(C)C)c2-3)[C@@H](C)C1 (stereo partly drawn) [Example 19, 2^4-((S)-4-acryloyl-2-methylpiperazin-1-yl)-2^6,3^6-difluoro-1^2-isopropyl-2^2,6-dioxo-2^1,2^2-dihydro-4-oxa-2(1,7)-pyrido[2,3-d]pyrimidina-1(3,4)-pyridina-3(1,2)-benzocycloheptane-7-yl acetate] |  |  | 7.74 | 7.74 |
| C=CC(=O)N1CCN(c2nc(=O)n3c4nc(c(F)cc24)-c2c(F)cccc2OCC(=O)C(OCC)c2ccnc(C(C)C)c2-3)[C@@H](C)C1 (some centres unmarked) [Example 22] |  |  | 7.85 | 8.15 |
| C=CC(=O)N1CCN(c2nc(=O)n3c4nc(c(F)cc24)-c2c(F)cccc2OCC(O)C(O)c2ccnc(C(C)C)c2-3)[C@@H](C)C1 (stereo partly drawn) [Example 1, 2^4-((S)-4-acryloyl-2-methylpiperazin-1-yl)-2^6,3^6-difluoro-6,7-dihydroxy-1^2-isopropyl-2^1,2^2-dihydro-4-oxa-2(1,7)-pyrido[2,3-d]pyrimidina-1(3,4)-pyridina-3(1,2)-benzocycloheptane-2^2-one] | 7.89 | 8.00 |  |  |
| C=CC(=O)N1CCN(c2nc(=O)n3c4nc(c(F)cc24)-c2c(F)cccc2OCC(O)C(OC(=O)OC(C)(C)C)c2ccnc(C(C)C)c2-3)[C@@H](C)C1 (stereo partly drawn) [Example 11, 2^4-((S)-4-acryloyl-2-methylpiperazin-1-yl)-2^6,3^6-difluoro-6-hydroxy-1^2-isopropyl-2^2-oxo-2^1,2^2-dihydro-4-oxa-2(1,7)-pyrido[2,3-d]pyrimidina-1(3,4)-pyridina-3(1,2)-benzocycloheptane-7-yl tert-butylcarbonate] |  |  | 7.59 | 7.68 |

Continued, values first:

| pIC50 (H358) | pIC50 (MIA PaCa-2) | pIC50 (H358; Homo sapiens, NCI-H358, 120 h) | pIC50 (MIA PaCa-2; [1]) | SMILES |
| --- | --- | --- | --- | --- |
| 8.40 | 8.15 |  |  | C=CC(=O)N1CCN(c2nc(=O)n3c4nc(c(F)cc24)-c2c(F)cccc2OCC(OC(C)C)C(O)c2ccnc(C(C)C)c2-3)[C@@H](C)C1 (stereo partly drawn) [Example 34, 2^4-((S)-4-acryloyl-2-methylpiperazin-1-yl)-6-isopropoxy-2^6,3^6-difluoro-7-hydroxy-1^2-isopropyl-2^1,2^2-dihydro-4-oxa-2(1,7)-pyrido[2,3-d]pyrimidina-1(3,4)-pyridina-3(1,2)-benzocycloheptane-2^2-one] |
|  |  | 8.10 | 7.96 | C=CC(=O)N1CCN(c2nc(=O)n3c4nc(c(F)cc24)-c2c(F)cccc2OCCCc2ccnc(C(C)C)c2-3)[C@@H](C)C1 [Positive compound, reference compound] |
| 8.70 | 8.70 |  |  | C=CC(=O)N1CCN(c2nc(=O)n3c4nc(c(F)cc24)-c2c(F)cccc2OCC(OCC)C(O)c2ccnc(C(C)C)c2-3)[C@@H](C)C1 (stereo partly drawn) [Example 45, (R)-2^4-((S)-4-acryloyl-2-methylpiperazin-1-yl)-6-ethoxy-2^6,3^6-difluoro-7-hydroxy-1^2-isopropyl-2^1,2^2-dihydro-4-oxa-2(1,7)-pyrido[2,3-d]pyrimidina-1(3,4)-pyridina-3(1,2)-benzocycloheptane-2^2-one] |
| 8.40 | 8.70 |  |  | C=CC(=O)N1CCN(c2nc(=O)n3c4nc(c(F)cc24)-c2c(F)cccc2OCC(OCCF)C(O)c2ccnc(C(C)C)c2-3)[C@@H](C)C1 (stereo partly drawn) [Example 39, (R)-2^4-((S)-4-acryloyl-2-methylpiperazin-1-yl)-2^6,3^6-difluoro-6-(2-fluoroethoxy)-7-hydroxy-1^2-isopropyl-2^1,2^2-dihydro-4-oxa-2(1,7)-pyrido[2,3-d]pyrimidina-1(3,4)-pyridina-3(1,2)-benzocycloheptane-2^2-one] |
|  |  | 8.40 | 8.40 | C=CC(=O)N1CCN(c2nc(=O)n3c4nc(c(F)cc24)-c2c(F)cccc2OCC2OC(C)(C)OC2c2ccnc(C(C)C)c2-3)[C@@H](C)C1 (stereo partly drawn) [Example 63, 11-((S)-4-acryloyl-2-methylpiperazin-1-yl)-15,21-difluoro-7-isopropyl-2,2-dimethyl-3a,20a-dihydro-9H,20H-12,14-(eiethane[1,2]diylidene)benzo[b][1,3]dioxazolo[4,5-j]pyrido[3,4-h]pyrimido[6,1-f][1]oxa[5,7]diazacyclododecin-9-one] |
|  |  | 7.35 | 7.42 | C=CC(=O)N1CCN(c2nc(=O)n3c4nc(c(F)cc24)-c2c(F)cccc2OCC(OCC)C(OCC)c2ccnc(C(C)C)c2-3)[C@@H](C)C1 (stereo partly drawn) [Example 60, 2^4-((S)-4-acryloyl-2-methylpiperazin-1-yl)-6,7-diethoxy-2^6,3^6-difluoro-1^2-isopropyl-2^1,2^2-dihydro-4-oxa-2(1,7)-pyrido[2,3-d]pyrimidina-1(3,4)-pyridina-3(1,2)-benzocycloheptane-2^2-one] |
| 7.39 | 7.16 |  |  | C=CC(=O)N1CCN(c2nc(=O)n3c4nc(c(F)cc24)-c2c(F)cccc2OCC(O)C(OCC(F)F)c2ccnc(C(C)C)c2-3)[C@@H](C)C1 (stereo partly drawn) [Example 32, 2^4-((S)-4-acryloyl-2-methylpiperazin-1-yl)-7-(2,2-difluoroethoxy)-2^6,3^6-difluoro-6-hydroxy-1^2-isopropyl-2^1,2^2-dihydro-4-oxa-2(1,7)-pyrido[2,3-d]pyrimidina-1(3,4)-pyridina-3(1,2)-benzocycloheptane-2^2-one] |
|  |  | 9.00 | 9.00 | C=CC(=O)N1C[C@H](C)N(c2nc(=O)n3c4nc(c(F)cc24)-c2c(ccc(Cl)c2F)OCC(O)C(O)c2ccnc(C(C)C)c2-3)C[C@H]1C (stereo partly drawn) [Example 65, (R)-2^4-((2S,5R)-4-acryloyl-2,5-dimethylpiperazin-1-yl)-3^5-chloro-2^6,3^6-difluoro-6,7-dihydroxy-1^2-isopropyl-2^1,2^2-dihydro-4-oxa-2(1,7)-pyrido[2,3-d]pyrimidina-1(3,4)-pyridina-3(1,2)-benz ocycloheptane-2^2-one] |
| 7.96 | 8.05 |  |  | C=CC(=O)N1CCN(c2nc(=O)n3c4nc(c(F)cc24)-c2c(F)cccc2OCC(O)C(OC(=O)C(N)C(C)C)c2ccnc(C(C)C)c2-3)C(C)C1 [Example 23, 2^4-((S)-4-acryloyl-2-methylpiperazin-1-yl)-2^6,3^6-difluoro-6-hydroxy-1^2-isopropyl-2^2-oxo-2^1,2^2-dihydro-4-oxa-2(1,7)-pyrido[2,3-d]pyrimidina-1(3,4)-pyridina-3(1,2)-benzocycloheptane-7-yl L-valine ester] |
